Seven compounds from patent US20110263662A1, “1,2-DIAMIDO-ETHYLENE DERIVATIVES AS OREXIN ANTAGONISTS” (priority 2007, published 2011) can be followed below.

Test [1] concerns the target T1, human orexin-2 receptor (Homo sapiens, UniProt O43614).
T1 construct: expressed in transfected cells; host or cells: CHO (Chinese hamster ovary) cells, grown under G418 selection
T1 sequence (O43614 1-444): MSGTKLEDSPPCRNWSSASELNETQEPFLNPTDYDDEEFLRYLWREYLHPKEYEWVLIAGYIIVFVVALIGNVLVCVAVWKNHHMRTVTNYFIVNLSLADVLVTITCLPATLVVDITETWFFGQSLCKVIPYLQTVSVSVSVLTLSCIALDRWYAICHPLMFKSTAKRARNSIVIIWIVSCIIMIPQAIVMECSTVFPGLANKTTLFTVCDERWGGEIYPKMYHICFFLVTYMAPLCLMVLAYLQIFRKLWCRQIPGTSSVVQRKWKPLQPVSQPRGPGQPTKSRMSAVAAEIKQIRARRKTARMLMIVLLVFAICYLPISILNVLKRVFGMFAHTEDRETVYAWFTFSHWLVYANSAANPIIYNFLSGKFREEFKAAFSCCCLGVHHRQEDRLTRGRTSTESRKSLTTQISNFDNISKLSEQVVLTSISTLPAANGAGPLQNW
In words: FLIPR intracellular calcium assay, orexin receptor antagonistic activity (OX2). In kind it is cell-based. To be noted: CHO cells expressing human orexin-2 receptor, 3 nM orexin-A. The method, then: (§1) Chinese hamster ovary (CHO) cells expressing the human orexin-1 receptor and the human orexin-2 receptor, respectively, are grown in culture medium (Ham F-12 with L-Glutamine) containing 300 μg/ml G418, 100 U/ml penicillin, 100 μg/ml streptomycin and 10% heat inactivated fetal calf serum (FCS). The cells are seeded at 20′000 cells/well into 384-well black clear bottom sterile plates (Greiner). The seeded plates are incubated overnight at 37° C. in 5% CO2.
(§2) Human orexin-A as an agonist is prepared as 1 mM stock solution in MeOH:water (1:1), diluted in HBSS containing 0.1% bovine serum albumin (BSA), NaHCO3:0.375 g/l and 20 mM HEPES for use in the assay at a final concentration of 3 nM.
(§3) Antagonists are prepared as 10 mM stock solution in DMSO, then diluted in 384-well plates, first in DMSO, then in HBSS containing 0.1% bovine serum albumin (BSA), NaHCO3: 0.375 g/l and 20 mM HEPES.
(§4) On the day of the assay, 50 μl of staining buffer (HBSS containing 1% FCS, 20 mM HEPES, NaHCO3: 0.375 g/l, 5 mM probenecid (Sigma) and 3 μM of the fluorescent calcium indicator fluo-4 AM (1 mM stock solution in DMSO, containing 10% pluronic) is added to each well.
(§5) The 384-well cell-plates are incubated for 50 min at 37° C. in 5% CO2 followed by equilibration at RT for 30-120 min before measurement.
(§6) Within the Fluorescent Imaging Plate Reader (FLIPR2 or FLIPR Tetra, Molecular Devices), antagonists are added to the plate in a volume of 10 μl/well, incubated for 10 min and finally 10 μl/well of agonist is added. Fluorescence is measured for each well at 1 second intervals, and the height of each fluorescence peak is compared to the height of the fluorescence peak induced by 3 nM orexin-A with vehicle in place of antagonist. For each antagonist, the IC50 value (the concentration of compound needed to inhibit 50% of the agonistic response) is determined. Optimized conditions may be achieved by adjustment of pipetting speed and cell splitting regime. The calculated IC50 values of the compounds may fluctuate depending on the daily cellular assay performance. Fluctuations of this kind are known to those skilled in the art.

In test [2] the target is T2, human orexin-1 receptor (Homo sapiens, UniProt O43613).
T2 construct: expressed in transfected cells; host or cells: CHO (Chinese hamster ovary) cells, grown under G418 selection
T2 sequence (O43613 1-425): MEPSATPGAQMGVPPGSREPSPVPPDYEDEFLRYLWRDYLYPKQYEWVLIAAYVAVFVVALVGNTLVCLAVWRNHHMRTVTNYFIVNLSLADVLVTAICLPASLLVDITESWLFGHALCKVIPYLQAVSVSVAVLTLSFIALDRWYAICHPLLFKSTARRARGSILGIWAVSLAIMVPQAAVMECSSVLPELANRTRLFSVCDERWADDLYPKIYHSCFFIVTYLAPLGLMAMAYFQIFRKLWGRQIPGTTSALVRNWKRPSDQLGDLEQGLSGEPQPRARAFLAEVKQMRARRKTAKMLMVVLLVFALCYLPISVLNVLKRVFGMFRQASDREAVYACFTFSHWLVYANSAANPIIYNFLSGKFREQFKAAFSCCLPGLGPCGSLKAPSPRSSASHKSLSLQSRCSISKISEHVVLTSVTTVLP
The test can be described thus: FLIPR intracellular calcium assay, orexin receptor antagonistic activity (OX1). In kind it is cell-based. To be noted: CHO cells expressing human orexin-1 receptor, 3 nM orexin-A. The method, then: as §1, §2, §3, §4, §5, §6

[3] abbreviates: measured with FLIPR Tetra (marked *).
The mark [4] stands for this setting: FLIPR 2, geometric mean from n = 2 values.

One may read the IC50 as the concentration at which inhibition is half-maximal. In the case of `Cc1nc(C(=O)N(CCNC(=O)c2c(C)nc3sccn23)Cc2ccc(F)cc2)c(-c2ccccc2)s1` [Example 18, 6-Methyl-imidazo[2,1-b]thiazole-5-carboxylic acid {2-[(4-fluoro-benzyl)-(2-methyl-5-phenyl-thiazole-4-carbonyl)-amino]-ethyl}-amide], the IC50 in test [1] (measured with FLIPR 2) was 11 nM; in test [2] (measured with FLIPR 2) it was 7.8 nM.

Consider `Cc1cccc(-c2sc(C3CC3)nc2C(=O)N(CCNC(=O)c2c(C)nc3sccn23)CC2CC2)c1` [Example 171, 6-Methyl-imidazo[2,1-b]thiazole-5-carboxylic acid {2-[cyclopropylmethyl-(2-cyclopropyl-5-m-tolyl-thiazole-4-carbonyl)-amino]-ethyl}-amide], for which the IC50 in test [1] (setting [3]) amounted to 12 nM; in test [2] (setting [3]), 16 nM.

Turning to `Cc1nc(C(=O)N(CCNC(=O)c2cccc3occc23)Cc2ccccc2)c(-c2ccc(F)cc2)s1` [Example 2, 5-(4-Fluoro-phenyl)-2-methyl-thiazole-4-carboxylic acid {2-[(benzofuran-4-carbonyl)-amino]-ethyl}-benzyl-amide], the results for the IC50 in test [1] (setting [4]) and in test [2] (setting [4]) were 35 nM and 242 nM, respectively.

With `COc1cccc(-c2sc(Br)nc2C(=O)N(CCNC(=O)c2c(C)nc3sccn23)CC2CC2)c1` [Example 179, 6-Methyl-imidazo[2,1-b]thiazole-5-carboxylic acid (2-{[2-bromo-5-(3-methoxy-phenyl)-thiazole-4-carbonyl]-cyclopropylmethyl-amino}-ethyl)-amide], the half-inhibitory concentration (IC50) in test [1] (setting [3]) and in test [2] (setting [3]) was 10 nM in each case.

With `Cc1cccc(-c2sc(N)nc2C(=O)N(CCNC(=O)c2nn(C)c3ccccc23)CC2CC2)c1` [Example 195, 1-Methyl-1H-indazole-3-carboxylic acid {2-[(2-amino-5-m-tolyl-thiazole-4-carbonyl)-cyclopropylmethyl-amino]-ethyl}-amide], the IC50 in test [1] (setting [3]) was 12 nM; in test [2] (setting [3]) it was 57 nM.

Turning to `Cc1nc2sccn2c1C(=O)NCC(Cc1ccccc1)NC(=O)c1ccccc1-c1ccccc1` (racemic) [Example 73, 6-Methyl-imidazo[2,1-b]thiazole-5-carboxylic acid {(RS)-2-[(biphenyl-2-carbonyl)-amino]-3-phenyl-propyl}-amide], the IC50 was determined as 19 nM in test [1] (measured with FLIPR 2) and 119 nM in test [2] (measured with FLIPR 2).

As for `Cc1cccc(-c2ccccc2C(=O)N(CCNC(=O)c2nn(C)c3ccccc23)C2CC2)c1` [Example 144, 1-Methyl-1H-indazole-3-carboxylic acid {2-[cyclopropyl-(3′-methyl-biphenyl-2-carbonyl)-amino]-ethyl}-amide], the IC50 was determined as 20 nM in test [1] (setting [3]) and 95 nM in test [2] (setting [3]).
